# In patent US7235536B2, “Cellulose sulfate and other sulfated polysaccharides to prevent and treat papilloma virus infection and other infections” (Rush Presbyterian-St. Luke's Medical Center, priority 2000, dated 2007):
# How the values were obtained:
# [1] = tested on: Porphyromonas levii; experiment: Agar method MIC; type: cell-based; conditions: for CS MIC: Agar
# [2] = tested on: Clostridium perfringes; experiment: Broth method MIC; type: cell-based; conditions: for CS MIC: Broth (study 2)
# [3] = tested on: Fusobacterium gonidiaformans; experiment: Agar method MIC; type: cell-based; conditions: for CS MIC: Agar
# [4] = tested on: HPV-40; experiment: RT-PCR ELISA for transient infection of human A431 cells, HPV-40; type: cell-based, human papilloma virus; conditions: with virus (HPV-40)
# Procedure: Cellulose sulfate and dextran sulfate were each prepared as a 2 mg/ml solution in 0.9% NaCl and tested for microbicidal activity using the in vitro HPV transient infection assay originally described by Smith and colleagues (Smith, L. H., C. Foster, M. E. Hitchcock, and R. Isseroff. 1993. In vitro HPV-11 infection of human foreskin. J. Invest. Dermatol. 101:292-295) with some modifications (Ludmerer, S. W., W. L. McClements, X. M. Wang, J. C. Ling, K. U. Jansen, and N. D. Christensen. 2000. HPV11 mutant virus-like parties elicit immune responses that neutralize virus and delineate a novel neutralizing domain. Virology 266:237-245). An ELISA-based read-out of Optical Density (OD) values using alkaline phosphatase cleavage of the substrate p-nitrophenyl phosphate was also used to measure HPV infection as described below.
# The RT-PCR assay to detect HPV-40 infection was designed similarly for the detection of HPV-11 infection as described above.
# A modification of the RT-PCR assay that incorporates an ELISA-based read-out (Boehringer-Mannheim) was also included to assess microbicidal activity. Replicate cell cultures of A431 cells were infected with an aliquot of infectious HPV virions as described above. After 4 days of culture, cells were harvested and RNA extracted. RNA was subjected to RT using downstream anti-sense (reverse) primers for HPV-11 or HPV-40 and β-actin (as a control/housekeeping cellular transcript) to initiate cDNA synthesis. The cDNA was processed through 2 sets of 30 cycles of PCR amplification using nested primers: the second set of cycles used digoxygenin (DIG)-dUTP to label the PCR products with DIG. DIG-labeled PCR products were denatured then renatured together with a biotinylated oligonucleotide specific for the targeted PCR product. Biotinylated products were detected in ELISA with plates coated with streptavidin (to capture the biotinylated target PCR product) then anti-DIG antibody and substrate. Labeled PCR products were added directly to ELISA plates, or titrated at 10-fold dilutions in duplicate for each cell culture for each virus dilution.
# The microbicidal activity was assessed either as the detection of ethidium stained PCR products or as an ELISA-based read-out as described above. […] An initial experiment was conducted to test the specificity of the ELISA-based RT-PCR assay using HPV-11 and HPV-40 infection of A431 cells (Table E).
# [5] = tested on: Prevotella bivia; experiment: Broth method MIC; type: cell-based
# [6] = tested on: Fusobacterium nucleatum; experiment: Broth method MIC; type: cell-based; conditions: for CS MIC: Broth (study 2)
# [7] = tested on: Peptostreptococcus tetradius; experiment: Broth method MIC; type: cell-based; conditions: for CS MIC: Broth (study 2)
# [8] = tested on: Gardnerella vaginalis; experiment: Broth method MIC; type: cell-based; conditions: for CS MIC: Broth (study 2)
# [9] = tested on: Prevotella disiens; experiment: Broth method MIC; type: cell-based; conditions: for CS MIC: Broth (study 2)
# [10] = tested on: Bacteroides thetaiotaomicron; experiment: Broth method MIC; type: cell-based
# [11] = tested on: Porphyromonas asaccharolytica; experiment: Agar method MIC; type: cell-based; conditions: for CS MIC: Agar
# [12] = tested on: Fusobacterium gonidiaformans; experiment: Broth method MIC; type: cell-based; conditions: for CS MIC: Broth (study 2)
# [13] = tested on: Gardnerella vaginalis; experiment: Agar well growth inhibition on HBT bilayer agar plates; type: cell-based
# Procedure: A fresh subculture of G. Vaginalis which is bacteria frequently associated with vaginitis was obtained after overnight growth (16 hours) on a V-agar plate and suspended in sterile phosphate buffered saline (PBS; pH 7.2) to achieve a turbidity of 0.5 (McFarland standard; approximately 10^8 CFU/ml). The suspension was diluted 10 fold and applied to HBT bilayer agar plates by swabbing the entire plate. The plate was allowed to dry for 2-3 min and small wells punched in the agar, 10 mm in diameter. Samples of cellulose sulfate were dissolved at 10 mg/ml in PBS and 0.2 ml placed in the agar wells. As control, 0.2 ml PBS was placed in one of the wells. Growth inhibition was indicated by a light area around the well.
# The studies were repeated using various concentrations of cellulose sulfate (ranging from 10 mg/ml to 0.125 mg/ml) and 4 different Gardnerella vaginalis strains. […] The lowest initial concentration of cellulose sulfate at which growth inhibition occurred was 0.5 mg/ml.
# [14] = tested on: Peptostreptococcus asaccharolyticus; experiment: Broth method MIC; type: cell-based; conditions: for CS MIC: Broth (study 2)
# [15] = tested on: Porphyromonas levii; experiment: Broth method MIC; type: cell-based
# [16] = Example 8, agar, 48 hours anaerobic, highest tested 625 μg/ml
substance,measurement,setting,value
sodium cellulose sulfate,lowest concentration of compound that inhibited growth,[1]; [16],40 µg/mL
same,CS MIC,[1]; rma# 11425,>625 µg/mL
same,CS MIC,[1]; rma# 11601,40 µg/mL
same,growth inhibition,[2]; at the concentrations tested,inhibited one strain of Clostridium perfringes but not another one
same,CS MIC,[2]; rma# 11608,10000 µg/mL
same,CS MIC,[2]; rma# 11655,NI (not inhibited by 10 mg/ml (the highest concentration tested))
same,lowest concentration of compound that inhibited growth,[3]; [16],156 µg/mL
same,CS MIC,[3]; rma# 11423,>625 µg/mL
same,CS MIC,[3]; rma# 11653,156 µg/mL
same,"Mean (SD) of O.D. reading for RT-PCR ELISA, HPV-40 probe",[4]; 10 μg/ml at viral pretreatment,0.397 (0.050) O.D.
same,"Mean (SD) of O.D. reading for RT-PCR ELISA, HPV-40 probe",[4]; 100 μg/ml at viral pretreatment,0.128 (0.008) O.D.
same,"Mean (SD) of O.D. reading for RT-PCR ELISA, HPV-40 probe",[4]; 1000 μg/ml at viral pretreatment,0.037 (0.004) O.D.
same,growth inhibition,[5]; all strains,inhibited
same,CS MIC,"[5]; rma# 11683, Broth (study 1)",NI (not inhibited by 10 mg/ml (the highest concentration tested))
same,CS MIC,"[5]; rma# 11683, Broth (study 2)",5000 µg/mL
same,CS MIC,"[5]; rma# 11697, Broth (study 1)",600 µg/mL
same,CS MIC,"[5]; rma# 11697, Broth (study 2)",5000 µg/mL
same,growth inhibition,"[6]; both strains, broth method",inhibited
same,CS MIC,[6]; rma# 10481,5000 µg/mL
same,CS MIC,[6]; rma# 11518,10000 µg/mL
same,growth inhibition,[7]; all strains,inhibited
same,CS MIC,[7]; rma# 11253,5000 µg/mL
same,CS MIC,[7]; rma# 11287,5000 µg/mL
same,growth inhibition,[8]; both strains,inhibited
same,CS MIC,[8]; rma# 12066,5000 µg/mL
same,CS MIC,[8]; rma# 12262,5000 µg/mL
same,growth inhibition,[9]; all strains,inhibited
same,CS MIC,[9]; rma# 11579,10000 µg/mL
same,CS MIC,[9]; rma# 11698,10000 µg/mL
same,CS MIC,"[10]; ATCC (first listed), Broth (study 1)",NI (not inhibited by 10 mg/ml (the highest concentration tested))
same,CS MIC,"[10]; ATCC (first listed), Broth (study 2)",NI (not inhibited by 10 mg/ml (the highest concentration tested))
same,CS MIC,"[10]; ATCC (second listed), Broth (study 2)",10000 µg/mL
same,growth inhibition,[10]; at the concentrations tested,One strain of Bacteroides thetaiotaomicron was inhibited but three others were not
same,CS MIC,"[10]; rma# 11604, Broth (study 2)",NI (not inhibited by 10 mg/ml (the highest concentration tested))
same,CS MIC,"[10]; rma# 11651, Broth (study 2)",NI (not inhibited by 10 mg/ml (the highest concentration tested))
same,lowest concentration of compound that inhibited growth,[11]; [16],80 µg/mL
same,CS MIC,[11]; rma# 11612,80 µg/mL
same,CS MIC,[11]; rma# 11656,>625 µg/mL
same,growth inhibition,"[12]; both strains, broth method",inhibited
same,CS MIC,[12]; rma# 11423,5000 µg/mL
same,CS MIC,[12]; rma# 11653,5000 µg/mL
same,"area of growth inhibition around the well, diameter","[13]; 10 mg/ml in PBS, 0.2 ml in agar well",6 mm
same,growth inhibition,"[13]; 4 different Gardnerella vaginalis strains, 10 mg/ml to 0.125 mg/ml",Dose dependent inhibition
same,lowest initial concentration at which growth inhibition occurred,"[13]; 4 different Gardnerella vaginalis strains, 10 mg/ml to 0.125 mg/ml tested",0.5 mg/mL
same,growth inhibition,[14]; all strains,inhibited
same,CS MIC,[14]; rma# 11587,10000 µg/mL
same,CS MIC,[14]; rma# 11607,10000 µg/mL
same,growth inhibition,[15]; both strains,inhibited
same,CS MIC,"[15]; rma# 11425, Broth (study 1)",600 µg/mL
same,CS MIC,"[15]; rma# 11425, Broth (study 2)",600 µg/mL
same,CS MIC,"[15]; rma# 11601, Broth (study 1)",300 µg/mL
same,CS MIC,"[15]; rma# 11601, Broth (study 2)",300 µg/mL
